Among the data in PubChem BioAssay AID652053 (Broad Institute, 2013) are AC40 values, retold here.

Molecules are shown by their SMILES. Where “and” joins values, the source holds several entries; their conditions need not be identical. Equal values may be shown once.

This test deals with Huh7 psiCHECK-miR122 Renilla luciferase reporter, 48 h. In words: miR-122 inhibitors in Huh7 reporter cells, dose response, cell-based, Huh7 psiCHECK-miR122, Renilla luciferase, cherry-pick (AID 652053).
`CC(C)(C)NS(=O)(=O)c1ccc(NC(=S)NC(=O)C2CC2)cc1`: the AC40 is 1.86 µM.

For `Fc1ccccc1Cn1cc(C(=S)N2CCOCC2)c2ccccc21`, the AC40 was 12.4 µM.

As to `O=S(=O)(/N=C(/Nc1ccc(Cl)c(S(=O)(=O)Nc2ccccc2Cl)c1)c1ccc(F)cc1)c1ccccc1`, the AC40 was 26.8 µM.

`COc1ccc(S(=O)(=O)N(C)C[C@H]2Oc3cc(C#CC4CCCC4)ccc3S(=O)(=O)N([C@H](C)CO)C[C@@H]2C)cc1`: the AC40 is 1.58 µM.

As for `Cc1ccc(NS(=O)(=O)c2cc(OCC(N)=O)c(C)cc2Cl)cc1C`, the AC40 was 7.14 µM.

In the case of `O=C(Cc1ccccc1)N1C[C@@H]2[C@H](c3ccccc31)[C@@H](CO)N2C(=O)Nc1ccc(F)cc1`, the AC40 is 2.61 µM.

Take `Cc1ccc(S(=O)(=O)N(CC(=O)N2CCC(C)CC2)c2cccc(C)c2)cc1`: the AC40 is 12 µM.

Turning to `CCCNC(=O)C[C@@H]1CC[C@H]2[C@H](COc3ccc(NC(=O)c4ccc5c(c4)OCO5)cc3C(=O)N2C)O1`, the AC40 is 2.21 µM.

Turning to `O=C(Nc1ccc(S(=O)(=O)NCCc2ccccc2)cc1)c1ccco1`, the AC40 was 2.02 µM.

Consider `CC(C)n1nc(C(=O)Nc2cccc(S(=O)(=O)NCc3ccco3)c2)c2ccccc2c1=O`, for which the AC40 was 2.61 µM.

For the molecule `CCCCCCNS(=O)(=O)c1ccc(OC)c(OC)c1`, the AC40 is 4.67 µM.

For `Cc1ccccc1NC(=O)c1ccc(NS(=O)(=O)c2cc(C(C)(C)C)cc(C)c2C)cc1`, the AC40 is less than 0.26 µM.

`Cc1cc(C)c(C)c(S(=O)(=O)Nc2ccc3cn[nH]c3c2)c1C`: the AC40 was 0.694 µM.

`OC(c1cc(Cl)cc(Cl)c1)c1ncc(-c2ccccc2F)[nH]1` (stereo not drawn): the AC40 was 3.84 µM.

In the case of `C[C@@H]1CN([C@H](C)CO)C(=O)c2cccc(NC(=O)C3CCCCC3)c2O[C@@H]1CN(C)Cc1ccc(C(=O)Nc2ccccc2N)cc1`, the AC40 was 6.1 µM.

Turning to `CC1CC(C)CN(S(=O)(=O)c2ccc(NC(=O)c3ccc(=O)[nH]c3)cc2)C1` (stereo not drawn), the AC40 is 12 µM.

As for `C[C@H](CO)N1C[C@H](C)[C@@H](CN(C)Cc2ccc3c(c2)OCO3)Oc2c(NC(=O)C3CC3)cccc2C1=O`, the AC40 is 11.7 µM and 3.61 µM.

Regarding `CCCC(=O)Nc1ccc2c(c1)C(=O)N(C)[C@H]1CC[C@@H](CC(=O)NCc3cccc(F)c3)O[C@H]1CO2`, the AC40 is 0.762 µM.

With `Cc1ccc(NS(=O)(=O)c2cc(Br)cnc2N)cc1C`, the AC40 is 2.36 µM.

As to `CCOc1ccc(NS(=O)(=O)c2cc(NC(=O)C3CC3)ccc2C)cc1Br`, the AC40 is 2.15 µM.

With `CN1C(=O)c2cc(NC(=O)NCc3ccccc3)ccc2OC[C@@H]2O[C@@H](CC(=O)NCC3CCCCC3)CC[C@@H]21`, the AC40 is 3.21 µM.

As to `COc1cc(C(CCN2CCOCC2)c2c(OC)cc(OC)c3c(-c4ccccc4)cc(=O)oc23)cc(OC)c1OC` (stereo not drawn), the AC40 was 1.2 µM.

As to `c1ccc(-n2nnnc2-c2cccc3ccccc23)cc1`, the AC40 is 10.6 µM.

Consider `C[C@@H]1CN([C@@H](C)CO)C(=O)c2cccc(N(C)C)c2O[C@@H]1CN(C)Cc1ccc(C(=O)Nc2ccccc2N)cc1`, for which the AC40 is 3.25 µM.

Take `C[C@H]1CN([C@@H](C)CO)C(=O)c2cccc(NC(=O)C3CCOCC3)c2O[C@@H]1CN(C)Cc1ccc(C(F)(F)F)cc1`: the AC40 is 1.51 µM.

As for `CCOC(=O)Nc1nc(-c2ccccc2)c(C(=O)c2ccc(Cl)cc2)s1`, the AC40 was 13.8 µM.

As for `CC(=O)c1c(C)[nH]c(C(=O)Nc2ccc(C)c(S(=O)(=O)Nc3ccc(C)cc3C)c2)c1C`, the AC40 is 8.45 µM.

As for `CN(c1cccc(NC(=O)c2ccc(Cl)c(S(=O)(=O)Nc3ccccc3)c2)c1)S(C)(=O)=O`, the AC40 was 2.18 µM.

With `CCOC(=O)c1cc(S(=O)(=O)Nc2cccc(OC)c2)cn1C`, the AC40 is 1.84 µM.

On to `CC(C)CNS(=O)(=O)c1cc2c3c(c1)CCC(=O)N3CCC2`, for which the AC40 was 9.58 µM.

As to `CSc1nc(-c2ccc(C)cc2)[nH]c1S(=O)(=O)c1ccccc1`, the AC40 was 15.9 µM.

With `Cc1ccc(S(=O)(=O)Nc2ccc3ccccc3c2)cc1`, the AC40 was 7.08 µM.

Consider `Cc1cc(C(=O)Nc2cccc3c2O[C@H](CN(C)Cc2ccc(C(F)(F)F)cc2)[C@@H](C)CN([C@H](C)CO)C3=O)n(C)n1`, for which the AC40 was 0.943 µM.
